This is an account of results in publication doi:10.1101/2025.02.03.636334v1 (biorxiv, 2025).

Molecules are shown by their SMILES. Values after ≈ are worked out from the molar mass of the structure shown.

The assay relates to M. tuberculosis H37Rv. The assay can be described thus: microbe, parasite or virus in culture. To be noted: Mycobacterium tuberculosis, 192 h, read-out: Mtb MIC (µM).
Consider `O=c1[nH]c(SCc2cc(F)cc3c2OC(c2ccccc2)OC3)nc2sc3c(c12)CCCC3` (stereo not shown) [Z13684502], for which the MIC was found to be 100 µM (≈ 48.1 µg/mL).
With `O=C(Nc1ccc(F)cc1)C(c1ccccc1)N1C(=O)NC(c2ccccc2)(c2ccccc2)C1=O` (stereo not shown) [Z14471296] the figure was 100 µM (≈ 48 µg/mL).
With `O=C(CN1C(=O)NC(c2ccccc2)(c2ccccc2)C1=O)NC(c1ccccc1)c1ccccc1` [Z14474580] the figure was 100 µM (≈ 47.6 µg/mL); with `CC(NC(=O)CN1C(=O)NC(c2ccccc2)(c2ccccc2)C1=O)c1ccc(Cl)cc1` (stereo not shown) [Z14475560], 100 µM (≈ 44.8 µg/mL); with `O=C(COC(=O)c1cc(-c2ccccc2)nn1-c1ccccc1)NC(c1ccccc1)c1ccccc1` [Z15852380], 100 µM (≈ 48.8 µg/mL).
With `O=C(COC(=O)c1cc(-c2cccc3ccccc23)nc2ccccc12)Nc1cc(C(F)(F)F)ccc1N1CCOCC1` [Z18816890] the figure was 100 µM (≈ 58.6 µg/mL).
For the compound `O=C1NC2(CCCC2)C(=O)N1Cc1cn(-c2ccccc2)nc1-c1ccc(Cl)cc1` [Z25701709], the MIC turned out to be 100 µM (≈ 42.1 µg/mL).
Consider `Cc1cccc(-c2nn(-c3ccccc3)cc2C(=O)Oc2ccccc2-c2nc3ccccc3s2)c1` [Z26889353], for which the MIC was found to be 100 µM (≈ 48.8 µg/mL).
Under `O=C(c1ccc(F)cc1)N1CCN(Cc2nc3sc4c(c3c(=O)[nH]2)CCCC4)CC1` [Z26985512] stands 25 µM (≈ 10.7 µg/mL).
Under `Cc1ccc2nc(-c3ccc(NC(=O)c4cc(-c5ccccc5)nn4-c4ccccc4)cc3)sc2c1` [Z27663993] stands 100 µM (≈ 48.7 µg/mL); under `O=C(/C=C/c1cn(-c2ccccc2)nc1-c1ccc(F)cc1)N1CCCS/C1=N\c1ccccc1` [Z27871611], 100 µM (≈ 48.3 µg/mL).
Turning to `O=C(Nc1nc(-c2cccs2)cs1)c1cc(-c2ccccc2)nc2ccccc12` [Z28307167], the MIC was found to be 100 µM (≈ 41.4 µg/mL).
Under `Cc1ccc(-c2cc(C(=O)N3CCN(Cc4nc5ccccc5s4)CC3)c3ccccc3n2)cc1` [Z28583171] stands 6.2 µM (≈ 2.97 µg/mL); under `N#Cc1ccc(CN2CCN(C(=O)c3cc(-c4ccccc4)nn3-c3ccccc3)CC2)cc1` [Z28887309], 50 µM (≈ 22.4 µg/mL).
Under `CC1(c2ccc3ccccc3c2)NC(=O)N(CC(=O)Nc2nc(-c3ccc4c(c3)CCC4)cs2)C1=O` (stereo not shown) [Z28888852] stands 3.1 µM (≈ 1.54 µg/mL); under `Cc1cccc(Oc2ccc(NC(=O)c3nn(-c4ccccc4)c(=O)c4ccccc34)cc2)c1` [Z29906038], 100 µM (≈ 44.7 µg/mL).
As for `O=C(Nc1ccc2oc3ccccc3c2c1)c1ccc(=O)n(Cc2ccccc2)n1` [Z30534850], the MIC worked out at 100 µM (≈ 39.5 µg/mL).
Regarding `CCn1c2ccccc2c2cc(NC(=O)c3cc(-c4ccccc4)nc4ccccc34)ccc21` [Z30593627], the MIC is 100 µM (≈ 44.2 µg/mL).
With `O=C(NNc1ccc(F)cc1)c1cccc(S(=O)(=O)N2CCc3ccccc3C2)c1` [Z30877419] the figure was 100 µM (≈ 42.5 µg/mL); with `Cc1ccc(-c2cc(C(=O)Oc3ccc(Oc4ccccc4)cc3)c3ccccc3n2)cc1` [Z30908638], 100 µM (≈ 43.1 µg/mL).
With `COc1cc2c(cc1NC(=O)c1ccccc1-c1ccc(C(F)(F)F)cc1)oc1ccccc12` [Z30927947] the figure was 100 µM (≈ 46.1 µg/mL).
With `O=S(=O)(c1cccc(C(F)(F)F)c1)N1CCN(c2nc(-c3ccccc3)nc3ccccc23)CC1` [Z31104682] the figure was 100 µM (≈ 49.9 µg/mL).
On to `O=C1C(=CNc2cccc(C(F)(F)F)c2)c2ccccc2C(=O)N1c1cccc(C(F)(F)F)c1` [Z31274934], for which the MIC was found to be 6.2 µM (≈ 2.95 µg/mL).
Under `O=C(Nc1ccc(F)c(S(=O)(=O)Nc2cccc(C(F)(F)F)c2)c1)c1cc2ccccc2o1` [Z33249504] stands 50 µM (≈ 23.9 µg/mL); under `CN1C(=CC=NNC(=O)c2cn(-c3ccccc3)nc2-c2ccccc2)C(C)(C)c2ccccc21` [Z44838075], 100 µM (≈ 46.2 µg/mL); under `O=C(OCc1nc2sc3c(c2c(=O)[nH]1)CCCC3)c1cn(-c2ccccc2)nc1-c1ccccc1` [Z53787257], 100 µM (≈ 48.3 µg/mL).
Under `O=C(CN1C(=O)NC(c2ccccc2)(c2ccccc2)C1=O)Nc1ccccc1C(=O)NC1CCCC1` [Z54675683] stands 100 µM (≈ 49.7 µg/mL); under `O=C(COC(=O)c1c2c(nc3ccccc13)CCN(Cc1ccccc1)C2)Nc1c(F)cccc1F` [Z55704575], 100 µM (≈ 48.8 µg/mL); under `Cc1nn(-c2ccccc2)c2sc(C(=O)N=C3N=C4C=CC(Br)=CN4Cc4ccccc43)cc12` [Z56688850], 100 µM (≈ 52.8 µg/mL).
Under `Fc1ccccc1C1Oc2ccccc2C2CC(c3ccc(-c4ccccc4)cc3)=NN21` (stereo not shown) [Z56764284] stands 100 µM (≈ 42 µg/mL).
Take `Fc1ccc(C2Oc3ccccc3C3CC(c4ccc(-c5ccccc5)cc4)=NN32)cc1` (stereo not shown) [Z56765649]: the MIC was found to be 25 µM (≈ 10.5 µg/mL).
Under `O=C(N=C1N=C2C=CC=CN2Cc2ccccc21)c1cn(-c2ccccc2)nc1-c1ccc(F)cc1` [Z56787786] stands 100 µM (≈ 47.4 µg/mL).
With `Cc1cc(NC(=O)c2cc(-c3ccc(Cl)cc3)nc3ccccc23)n(-c2ccccn2)n1` [Z56802924] the figure was 100 µM (≈ 44 µg/mL); with `Cc1ccc(-c2nn(-c3ccccc3)cc2CCC(=O)Nc2cccc3ccccc23)cc1` [Z56806542], 100 µM (≈ 43.2 µg/mL).
With `Cc1ccc2nc(-c3ccc(NC(=O)c4cccc(S(=O)(=O)Nc5cccc(C(F)(F)F)c5)c4)cc3)sc2c1` [Z56810513] the figure was 6.2 µM (≈ 3.52 µg/mL); with `Nc1c(-c2ccccc2)c(CN2CCN(c3ccccc3F)CC2)nn1-c1ccc(F)cc1` [Z56903079], 25 µM (≈ 11.1 µg/mL).
Take `Cc1ccc(-c2cn3c(C(=S)Nc4ccc(F)cc4)c(-c4ccccc4)c4c3n2CCCC4)cc1` [Z57009953]: the MIC worked out at 100 µM (≈ 48 µg/mL).
As for `O=C(N[C@@H](Cc1ccccc1)c1nc2ccccc2[nH]1)c1ccc(-c2cccc(C(F)(F)F)c2)o1` [Z57992786], the MIC turned out to be 100 µM (≈ 47.5 µg/mL).
With `O=C(CN1CCCC1c1ccc2c(c1)OCCCO2)Nc1ccccc1Cc1ccccc1` (stereo not shown) [Z65195872] the figure was 50 µM (≈ 22.1 µg/mL); with `O=C(CN1C(=O)NC2(CCc3ccccc32)C1=O)NC(c1ccccc1)c1ccc(Cl)cc1` (stereo not shown) [Z65674656], 100 µM (≈ 46 µg/mL).
With `Cc1ccc(-c2cc(C(=O)N3CCN(Cc4ccncc4)CC3)c3ccccc3n2)cc1` [Z70806128] the figure was 100 µM (≈ 42.3 µg/mL); with `O=C(Nc1ccc(-n2cnc3ccccc32)cc1)c1nn(-c2ccccc2)c(=O)c2ccccc12` [Z82203216], 100 µM (≈ 45.7 µg/mL).
Under `O=C(Nc1cn(-c2ccccc2)nc1-c1ccc(F)cc1)Nc1cccc2ccccc12` [Z85924883] stands 100 µM (≈ 42.2 µg/mL); under `O=C(CN1C(=O)NC2(CCc3ccccc32)C1=O)c1c(-c2ccc(F)cc2)[nH]c2ccccc12` (stereo not shown) [Z89714290], 25 µM (≈ 11.3 µg/mL).
Turning to `O=C(CN1C(=O)NC2(CCOc3ccccc32)C1=O)c1c(-c2ccc(F)cc2)[nH]c2ccccc12` (stereo not shown) [Z89763517], the MIC came out at 3.1 µM (≈ 1.46 µg/mL).
Under `Cc1ccc(-c2nn(Cc3ccccc3)cc2C2NC(=O)c3ccccc3N2)cc1` (stereo not shown) [Z94792468] stands 100 µM (≈ 39.4 µg/mL); under `O=C(Nc1ccc2c(c1)OCO2)C1CCN(C(=O)c2nn(-c3ccccc3)c(=O)c3ccccc23)CC1` [Z99494278], 100 µM (≈ 49.7 µg/mL); under `Cc1ccc(-c2cc(C(=O)N3CCC(C(=O)Nc4ccc5c(c4)OCO5)CC3)c3ccccc3n2)o1` [Z99494285], 100 µM (≈ 48.4 µg/mL).
Consider `O=C(c1nn(Cc2ccccc2)c(=O)c2ccccc12)N1CCN(Cc2ccc3c(c2)CCO3)CC1` [Z102666506], for which the MIC came out at 100 µM (≈ 48.1 µg/mL).
Under `O=C(c1ccc2noc(-c3ccccc3)c2c1)N1CCN(Cc2ccc3c(c2)CCO3)CC1` [Z102669950] stands 100 µM (≈ 44 µg/mL).
Under `O=c1[nH]c(CN2CCN(C(c3ccc(F)cc3)c3ccc(F)cc3)CC2)nc2sc3c(c12)CCC3` [Z105382408] stands 100 µM (≈ 49.3 µg/mL).
Under `c1cncc(-c2nc(N3CCN(Cc4ccc5c(c4)CCO5)CC3)c3ccccc3n2)c1` [Z128095220] stands 25 µM (≈ 10.6 µg/mL).
